In ChEMBL document CHEMBL1201862, “PubChem BioAssay data set” (2004):
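In this assay, cells in 96-well plates receive the compound at five concentrations for 48 hours. Endpoints are linearly interpolated between the surrounding concentrations. Abbreviation: GI50, concentration required for 50% inhibition of growth.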 Calls of active or inactive are those of the source. Rule as the data show it: active = GI50 up to about 1.1 µM and inactive = higher.

Legend:
Test in all cases: NCI-60 cell line screen, 48 h
EKVX = system: EKVX
NCI/ADR-RES = system: NCI/ADR-RES
RPMI-8226 = system: RPMI-8226
RXF 393 = system: RXF 393
OVCAR-5 = system: OVCAR-5
SNB-75 = system: SNB-75
NCI-H226 = system: NCI-H226
CCRF-CEM = system: CCRF-CEM
BT-549 = system: BT-549
NCI-H460 = system: NCI-H460
COLO 205 = system: COLO 205
Malme-3M = system: Malme-3M
SF-539 = system: SF-539
IGROV-1 = system: IGROV-1
SK-MEL-28 = system: SK-MEL-28
HOP-92 = system: HOP-92
SR = system: SR
MDA-N = system: MDA-N
HL-60 = system: HL-60
U-251 = system: U-251
HCT-116 = system: HCT-116
CAKI-1 = system: CAKI-1
OVCAR-4 = system: OVCAR-4
UACC-257 = system: UACC-257
SF-268 = system: SF-268
DU-145 = system: DU-145
K562 = system: K562
MOLT-4 = system: MOLT-4
OVCAR-3 = system: OVCAR-3
MDA-MB-435 = system: MDA-MB-435
SF-295 = system: SF-295
ACHN = system: ACHN
UACC-62 = system: UACC-62
M14 = system: M14
SN12C = system: SN12C
PC-3 = system: PC-3
SW-620 = system: SW-620
HCT-15 = system: HCT-15
KM12 = system: KM12
UO-31 = system: UO-31
OVCAR-8 = system: OVCAR-8
SK-MEL-2 = system: SK-MEL-2
HT-29 = system: HT-29
MDA-MB-231 = system: MDA-MB-231
NCI-H522 = system: NCI-H522
SNB-19 = system: SNB-19
NCI-H23 = system: NCI-H23
LOX IMVI = system: LOX IMVI
MCF7 = system: MCF7
HOP-62 = system: HOP-62
HCC 2998 = system: HCC 2998
SK-MEL-5 = system: SK-MEL-5
T47D = system: T47D
TK-10 = system: TK-10
786-0 = system: 786-0
SK-OV-3 = system: SK-OV-3
A498 = system: A498
Hs-578T = system: Hs-578T
A549 = system: A549

Measured: GI50

CN(C)c1ccc(C2CC(=O)CC(c3ccc(N(C)C)cc3)C23C(=O)NC(=O)NC3=O)cc1 (stereo not given)
> 25 µM: HCT-15
active: K562 0.025 µM | MOLT-4 0.0025 µM
inactive: EKVX > 25 µM | NCI/ADR-RES > 25 µM | RPMI-8226 > 25 µM | RXF 393 15.8 µM | OVCAR-5 > 25 µM | SNB-75 9.79 µM | NCI-H226 > 25 µM | CCRF-CEM > 25 µM | BT-549 23 µM | NCI-H460 > 25 µM | COLO 205 > 25 µM | Malme-3M 8.73 µM | SF-539 14.9 µM | IGROV-1 > 25 µM | SK-MEL-28 > 25 µM | HOP-92 5.18 µM | SR > 25 µM | MDA-N > 25 µM | HL-60 > 25 µM | U-251 20.6 µM | HCT-116 > 25 µM | CAKI-1 > 25 µM | OVCAR-4 > 25 µM | UACC-257 > 25 µM | SF-268 19.5 µM | DU-145 > 25 µM | OVCAR-3 > 25 µM | MDA-MB-435 > 25 µM | SF-295 19.8 µM | ACHN > 25 µM | UACC-62 19.5 µM | M14 > 25 µM | SN12C > 25 µM | PC-3 > 25 µM | SW-620 > 25 µM | KM12 > 25 µM | UO-31 > 25 µM | OVCAR-8 14.4 µM | SK-MEL-2 16.7 µM | HT-29 > 25 µM | MDA-MB-231 > 25 µM | NCI-H522 17.6 µM | SNB-19 9.14 µM | NCI-H23 > 25 µM | LOX IMVI > 25 µM | MCF7 > 25 µM | HOP-62 18.2 µM | HCC 2998 > 25 µM | SK-MEL-5 > 25 µM | T47D > 25 µM | TK-10 > 25 µM | 786-0 12.4 µM

CC(=O)OC12c3ccccc3C(c3ccccc31)C1C(=O)N(c3ccccc3O)C(=O)C12 (stereo not given)
> 100 µM: HCT-15
inactive: EKVX > 100 µM | NCI/ADR-RES > 100 µM | RPMI-8226 66.5 µM | RXF 393 > 100 µM | OVCAR-5 > 100 µM | SNB-75 46.3 µM | SK-OV-3 > 100 µM | NCI-H226 > 100 µM | CCRF-CEM 57.3 µM | BT-549 > 100 µM | NCI-H460 > 100 µM | COLO 205 > 100 µM | Malme-3M 90.4 µM | SF-539 > 100 µM | A498 90.2 µM | IGROV-1 > 100 µM | SK-MEL-28 > 100 µM | SR > 100 µM | MDA-N > 100 µM | Hs-578T > 100 µM | HL-60 76.9 µM | U-251 > 100 µM | HCT-116 > 100 µM | CAKI-1 > 100 µM | OVCAR-4 > 100 µM | A549 > 100 µM | UACC-257 > 100 µM | SF-268 80.5 µM | DU-145 > 100 µM | K562 > 100 µM | MOLT-4 > 100 µM | OVCAR-3 90.8 µM | SF-295 80.2 µM | ACHN > 100 µM | UACC-62 > 10 µM | M14 > 100 µM | SN12C > 100 µM | PC-3 > 100 µM | SW-620 > 100 µM | KM12 92.7 µM | UO-31 50.4 µM | OVCAR-8 > 100 µM | HT-29 70.5 µM | MDA-MB-231 > 100 µM | SNB-19 84.9 µM | NCI-H23 41.6 µM | LOX IMVI > 100 µM | MCF7 > 100 µM | HOP-62 96.4 µM | HCC 2998 > 100 µM | SK-MEL-5 > 100 µM | T47D > 100 µM | TK-10 > 100 µM | 786-0 > 100 µM

O=C1C=C(Nc2ccc(S(=O)(=O)Nc3nccs3)cc2)c2ccccc2C1=O
inactive: EKVX 26.4 µM | NCI/ADR-RES 27.5 µM | RPMI-8226 37.3 µM | RXF 393 > 100 µM | OVCAR-5 17.5 µM | SNB-75 21.5 µM | SK-OV-3 > 100 µM | NCI-H226 21.9 µM | CCRF-CEM 15.2 µM | BT-549 20.7 µM | NCI-H460 34 µM | Malme-3M 21 µM | SF-539 21.1 µM | A498 71 µM | IGROV-1 12.5 µM | SK-MEL-28 16.5 µM | HOP-92 34.5 µM | SR 39.5 µM | MDA-N 18.8 µM | Hs-578T 25.8 µM | HL-60 24.7 µM | U-251 21.6 µM | HCT-116 34.5 µM | CAKI-1 26.8 µM | OVCAR-4 32.9 µM | A549 > 100 µM | UACC-257 31.6 µM | SF-268 27.1 µM | K562 12.1 µM | MOLT-4 11.8 µM | OVCAR-3 17 µM | MDA-MB-435 17.7 µM | SF-295 18 µM | ACHN 21 µM | UACC-62 24.5 µM | M14 21.9 µM | SN12C 24.6 µM | PC-3 71.4 µM | SW-620 19.4 µM | KM12 17.8 µM | UO-31 56.9 µM | OVCAR-8 23.1 µM | SK-MEL-2 28.6 µM | HT-29 19.1 µM | MDA-MB-231 26.5 µM | NCI-H522 38.5 µM | SNB-19 29.4 µM | NCI-H23 35.6 µM | LOX IMVI 19.8 µM | MCF7 18.9 µM | HOP-62 15.4 µM | HCC 2998 22.2 µM | SK-MEL-5 19.9 µM | T47D 69.5 µM | TK-10 > 100 µM | 786-0 36.6 µM
23.7 µM: HCT-15

COc1ccc(N2C(=O)/C(=C\c3cccc(Oc4ccccc4)c3)SC2c2ccccc2)cc1 (stereo not given)
> 100 µM: HCT-15
inactive: EKVX > 100 µM | NCI/ADR-RES 42.5 µM | RPMI-8226 21.2 µM | RXF 393 8.59 µM | OVCAR-5 > 100 µM | SK-OV-3 80.9 µM | NCI-H226 > 100 µM | CCRF-CEM 5.3 µM | BT-549 25.3 µM | NCI-H460 > 100 µM | COLO 205 66.8 µM | Malme-3M 34.6 µM | SF-539 24.5 µM | A498 > 100 µM | SK-MEL-28 38.1 µM | HOP-92 28.2 µM | SR 16.7 µM | MDA-N 29.3 µM | Hs-578T 10.3 µM | HL-60 20.5 µM | U-251 26.1 µM | HCT-116 25.4 µM | CAKI-1 > 100 µM | OVCAR-4 40.2 µM | A549 > 100 µM | UACC-257 38.7 µM | SF-268 33.2 µM | DU-145 73.8 µM | K562 26.4 µM | MOLT-4 26.7 µM | OVCAR-3 33.9 µM | MDA-MB-435 30.5 µM | SF-295 60 µM | ACHN > 100 µM | UACC-62 50.2 µM | M14 49.7 µM | SN12C > 100 µM | SW-620 32.9 µM | KM12 45 µM | UO-31 37.4 µM | OVCAR-8 28.6 µM | SK-MEL-2 > 100 µM | MDA-MB-231 > 100 µM | NCI-H522 8.24 µM | SNB-19 24.2 µM | NCI-H23 41.7 µM | LOX IMVI 21.9 µM | MCF7 29.9 µM | HOP-62 64.9 µM | HCC 2998 > 100 µM | SK-MEL-5 27.9 µM | T47D 37.5 µM | TK-10 > 100 µM | 786-0 > 100 µM

CCC(C)c1cnc(CC(C)C)c(=O)[nH]1 (stereo not given)
inactive: EKVX > 100 µM | RPMI-8226 > 100 µM | RXF 393 > 100 µM | OVCAR-5 > 100 µM | SNB-75 > 100 µM | SK-OV-3 > 100 µM | CCRF-CEM 89.5 µM | BT-549 > 100 µM | NCI-H460 > 100 µM | COLO 205 > 100 µM | A498 > 100 µM | IGROV-1 > 100 µM | SK-MEL-28 > 100 µM | HOP-92 > 100 µM | SR > 100 µM | MDA-N > 100 µM | Hs-578T > 100 µM | U-251 > 100 µM | HCT-116 > 100 µM | CAKI-1 > 100 µM | OVCAR-4 > 100 µM | A549 > 100 µM | UACC-257 > 100 µM | SF-268 > 100 µM | DU-145 > 100 µM | K562 > 100 µM | MOLT-4 > 100 µM | OVCAR-3 > 100 µM | MDA-MB-435 > 100 µM | SF-295 > 100 µM | ACHN > 100 µM | UACC-62 > 100 µM | M14 > 100 µM | SN12C > 100 µM | PC-3 > 100 µM | SW-620 > 100 µM | KM12 > 100 µM | UO-31 > 100 µM | OVCAR-8 > 100 µM | SK-MEL-2 > 100 µM | HT-29 > 100 µM | MDA-MB-231 > 100 µM | SNB-19 > 100 µM | NCI-H23 > 100 µM | LOX IMVI > 100 µM | MCF7 > 100 µM | HOP-62 > 100 µM | HCC 2998 > 100 µM | SK-MEL-5 > 100 µM | T47D > 100 µM | TK-10 > 100 µM | 786-0 > 100 µM
> 100 µM: HCT-15
